Patent US12404304B1, “Telomerase reverse transcriptase (TERT) expression enhancing compounds and methods for using the same” (Sierra Sciences, LLC, priority 2007, dated 2025)

Experiments:
[1] = system: human TERT expression (hTERT mRNA); assay: Quantitative real-time RT-PCR of hTERT mRNA expression (Ct, transcripts) in compound-treated cells; type: cell-based; conditions: quantitative real-time RT-PCR
Procedure, shortened: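 Read-out is cycle threshold, the cycle at which probe fluorescence released by Taq 5′-nuclease activity crosses a set level; Ct falls as hTERT mRNA rises. cDNA of treated and untreated cells was compared, with starting transcripts quantified against a known-cDNA standard curve.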

[2] = system: viable cells in culture; assay: Cell viability assay (CellTiter-Glo Luminescent Cell Viability Assay, ATP quantitation, percent of vehicle control)
Description: Cell viability is determined using a homogeneous method, such as CellTiter-Glo® Luminescent Cell Viability Assay (Promega Corporation, Madison, WI.) to determine the number of viable cells in culture These assays are based on quantitation of the ATP present, which signals the presence of metabolically active cells. Luminescent values of compound treated cells are compared to that of cells treated with vehicle alone to determine the average cell viability as a percent of control.

Structure (SMILES)	Average Number of hTERT Transcripts [1]	Average Cell Viability after 24 Hours (% DMSO) [2] [% DMSO]
C/C(=N\NC(=O)Cc1ccc(Cl)cc1)c1ccccn1 [compound 1275]	127.83	71.98
O=C(NNC1=C(C(=O)C(F)(F)F)CCC1)c1ccc(Br)cc1 [compound 1276]	9.73	92.70
Cc1occc1C(=O)N/N=C/c1cc(I)cc(I)c1O [compound 1277]	24.11	68.53
O=C(Cc1ccccc1)NNC1=C(C(=O)C(F)(F)F)CCC1 [compound 1278]	35.46	74.57
COc1cccc(C=NNC(=O)C(C)Nc2cccc3ccccc23)c1O (stereo not drawn) [compound 1279]	25.71	63.90
Cc1cc(C(=O)N/N=C/c2cc(Br)ccc2O)c(C)o1 [compound 1280]	9.80	59.52
CCC(Nc1ccc(Br)cc1)C(=O)N/N=C/c1c(O)ccc2ccccc12 (stereo not drawn) [compound 1281]	8.35	56.81
Cc1cc(C(=O)N/N=C/c2ccccc2O)c(C)o1 [compound 1282]	27.61	68.67
O=C(N/N=C/c1cccc2cccnc12)c1ccc2c(c1)OCO2 [compound 1283]	18.81	68.25
CC(Oc1cccc2ccccc12)C(=O)NN=Cc1cccc2cccnc12 (stereo not drawn) [compound 1284]	44.70	73.23
O=c1cnnc(N/N=C/c2ccccn2)[nH]1 [compound 1285]	97.75	65.50
O=C(Cc1ccccc1)N/N=C/c1cccc2cccnc12 [compound 1286]	29.62	75.11
O=C(COc1ccc(F)cc1)N/N=C/c1cccc2cccnc12 [compound 1287]	12.08	67.01
COc1ccccc1OCC(=O)N/N=C/c1cccc2cccnc12 [compound 1288]	18.81	78.28
COc1ccc(OCC(=O)N/N=C/c2cccc3cccnc23)cc1 [compound 1289]	21.50	84.79
O=C(COc1ccc(Cl)cc1)N/N=C/c1cccc2cccnc12 [compound 1290]	9.13	62.81
CC(Oc1cccc2cccnc12)C(=O)N/N=C/c1cccc2cccnc12 (stereo not drawn) [compound 1291]	47.89	77.64
Cn1c(SCC(=O)N/N=C/c2sc3ccccc3c2O)nc2ccccc21 [compound 1292]	39.11	69.51
O=C(N/N=C/c1ccccc1O)/C(=C\c1cccs1)NC(=O)c1ccccc1 [compound 1293]	37.88	89.97
CCCCCC(=O)N/N=C(/C)c1ccccn1 [compound 1294]	105.99	74.63
Cc1cc(NC(=O)C2c3ccccc3Oc3ccccc32)n(-c2nc(C)c(C)c(=O)[nH]2)n1 [compound 1295]	45.40	66.62
CCc1c(C)nc(-n2nc(C)cc2NC(=O)C2c3ccccc3Oc3ccccc32)[nH]c1=O [compound 1296]	60.31	73.20
CCOC(=O)c1nn(-c2ccccc2)c(=O)c2c(NC(=O)c3ccc4c(c3)OCO4)scc12 [compound 1298]	8.68	101.83
CCOC(=O)c1nn(-c2ccccc2)c(=O)c2c(NC(=O)c3c(F)cccc3Cl)scc12 [compound 1299]	2.95	69.64

Structure (SMILES)	Average Number of hTERT Transcripts [1]	Average Cell Viability after 24 Hours (% DMSO) [2] [% DMSO]
CCOC(=O)c1nn(-c2ccc(Cl)cc2)c(=O)c2c(NC(=O)c3ccc(F)cc3)scc12 [compound 1300]	6.98	62.52
O=C(Nc1ccc(Cl)c(Cl)c1)Nc1nnc(CSc2ccccc2)s1 [compound 1301]	65.14	63.90
COC(=O)CSc1nnc(NC(=O)c2ccc(Cl)cc2)s1 [compound 1302]	41.43	70.75
CCC(=O)Nc1nnc(SCc2cc(=O)c3cccc(Cl)c3[nH]2)s1 [compound 1303]	4.51	80.90
c1ccc(-c2c(-c3ccccc3)n(Cc3ccco3)c3ncn4nc(-c5ccncc5)nc4c23)cc1 [compound 1304]	59.37	89.74
CCOC(=O)c1cc2ccc(OC(=O)COc3ccc(C)cc3)cc2oc1=O [compound 1307]	8.66	80.83
CCOC(=O)COc1ccc2c(C)cc(=O)oc2c1C [compound 1308]	3.16	90.12
CN(C(=O)c1cc2ccccc2oc1=O)C1(C)CCS(=O)(=O)C1 (stereo not drawn) [compound 1309]	10.58	119.29
CCc1cc(=O)oc2c(C)c(OC(=O)c3ccccc3)ccc12 [compound 1310]	5.00	105.11
COc1cc([N+](=O)[O-])cc2cc(C(=O)NCCCN3CCOCC3)c(=O)oc12 [compound 1311]	4.38	92.83
Cc1noc(-c2cc(Br)cc(Br)c2O)n1 [compound 1312]	51.29	67.76
O=C1CC(N2CCN(Cc3ccc(Cl)cc3)CC2)C(=O)N1c1ccccc1 (stereo not drawn) [compound 1313]	7.45	112.79
Cc1sc(CO)c(Sc2ccccc2)c1C(=O)O [compound 1314]	8.82	109.57
CC1CCc2c(sc(NC(=O)c3cccnc3)c2C(=O)Nc2cccc(Cl)c2)C1 (stereo not drawn) [compound 1315]	26.20	58.86
O=C(Nc1nccs1)c1sc2ccccc2c1Cl [compound 1316]	13.39	73.91
Nc1c(C(=O)Nc2ccc(Cl)c(Cl)c2)sc2nc3c(cc12)CCCC3 [compound 1317]	10.56	88.17
CC(=O)Oc1ccccc1C(=O)Nc1ccc(F)cc1F [compound 1318]	13.40	59.35
CC1=NN(C(=O)c2cc(Br)ccc2O)C(O)(c2ccccc2)C1 (stereo not drawn) [compound 1319]	15.04	61.93
Cc1ccn2c(-c3csc(Nc4ccc(C(=O)O)cc4)n3)c(C)nc2c1 [compound 1320]	8.00	90.39
COC(=O)C1=C(C)Nc2nnnn2C1c1ccccc1OC (stereo not drawn) [compound 1321]	22.30	124.73
COc1ccc(-c2cc3ccccn3c2C)cc1 [compound 1322]	20.10	81.69
Cc1ccc(S(=O)(=O)NC(=O)c2ccccc2O)cc1 [compound 1323]	11.00	121.47
O=C1c2oc3ccccc3c(=O)c2C(c2cccc(OCc3ccccc3)c2)N1c1nccs1 (stereo not drawn) [compound 1324]	8.42	57.19
CCn1ncc([N+](=O)[O-])c1C(=O)Nc1sc2c(c1C#N)CCCCCC2 [compound 1325]	29.36	94.20
